# “Also recorded” adds a separate entry of the source. Like-named read-outs stand apart in the source and are kept apart here.
# Tests used:
# [1] = system: carbohydrate exposure (CE); assay: Glucose supply and insulin demand model: effect on carbohydrate exposure; assay type: in vivo, human; design: scale not given here; conditions: Metformin 2000 mg, Glyburide 10 mg, Pioglitazone 45 mg, Insulin Glargine 0.5 U/kg daily; pH encapsulated glucose 3.0 grams/day
# Description: (§1) Therapeutic targets of the glucose supply (CE, 1+2; HGU, 3; GNG, 4; IR, 5) and insulin demand (PGU, 6; PIE, 7) model are presented in FIG. 1. To identify quantitative differences between antidiabetic agents on CE, HGU, GNG, IR, PGU, and PIE, multidatabase searches (Cochrane Central Register of Controlled Trials and Cochrane Register of Systematic Reviews, Embase, OVID Healthstar, OVID Journals, and PubMed) were conducted cross-referencing title and keywords for all selected antidiabetic therapies and their respective targets.
# (§2) Alpha-glucosidase, biguanide, and thiazolidinedione (TZD) studies with long-term, pre-post design at maximal therapeutic doses were identified to simulate chronic administration. To maintain consistency with cardiovascular trials and accommodate known influences of hyperglycemia and hyperinsulinemia on the respective targets,^13-16 studies including patients with HbA1c in the range of 6-8% and body mass index (BMI)≧30 kg/m^2 were preferentially selected. In the event multiple studies were available to identify the effect of an agent on a therapeutic target, the mean percent change was used. Conversely, if there was evidence that an agent would elicit a response on a given target but no mathematical representation of the difference was provided, conservative estimates consistent with the scale of other agents and the degree of glucose regulation were instituted to best represent the expected effect. Individual agents were then characterized for the 24 h percent change from baseline for CE, HGU, GNG, IR, PGU, and PIE. Carbohydrate exposure was determined as the combined effect of caloric intake and intestinal carbohydrate absorption. Hepatic glucose uptake was defined as the reported value obtained immediately following oral glucose loading. Because GNG is known to be enhanced in the fasting state and persistent throughout the prandial phase,^17,18 effect was determined during the fasting state and considered equivalent throughout the prandial phase. For studies evaluating fasting glucose and insulin concentrations, an index of IR was determined by homeostasis model assessment of insulin resistance (HOM-AIR) using the following formula: Insulin (mU/liter)×Glucose (mmol)/22.5.^19 To account for known differences in secretory and uptake dynamics during the fasting and prandial phases, studies identifying the impact of therapies during the fasting state (or simulated hyperinsulinemic euglycemic clamp) and prandial phase (or oral glucose load insulin clamp) were specifically identified for changes in PGU (glucose infusion rate) and PIE (insulin concentrations) according to Equation (1): […]
# (§3) For sulfonylurea and insulin-based therapies, insulin concentration time profiles were obtained and superimposed on the baseline 24 h insulin concentration time profile of T2D patients (FIG. 2) to calculate the increase in PIE (trapezoidal rule).^20 Calculated increases in incremental and cumulative insulin exposure were correlated to known insulin dose-response effects on HGU, GNG, and PGU (FIG. 3),^18,21 according to the equation y=mx+b. Twenty-four-hour increases in HGU, PGU, and PIE and decreases in GNG were compared to baseline values and percent change calculated.
# (§4) With alpha-glucosidase, biguanide, TZD, secretagogue, and insulin therapies characterized for their respective impacts on CE, HGU, GNG, IR, PIE, and PGU, identification of their effect on the glucose supply (decrease in CE, increase in HGU, decrease in GNG, decrease in IR) and insulin demand (increase in PIE, increase in PGU) dynamic was assessed according to Equation (2), which provides the SD ratio according to the invention: […]
# [2] = system: hepatic glucose uptake (HGU); assay: Glucose supply and insulin demand model: effect on hepatic glucose uptake; assay type: in vivo, human
# Description: as §1, §2, §3, §4
# [3] = system: hepatic gluconeogenesis (GNG); assay: Glucose supply and insulin demand model: effect on hepatic gluconeogenesis; assay type: in vivo, human
# Description: as §1, §2, §3, §4
# [4] = system: peripheral insulin exposure (PIE); assay: Glucose supply and insulin demand model: effect on peripheral insulin exposure; assay type: in vivo, human
# Description: as §1, §2, §3, §4
# Twenty-four-hour steady state insulin concentration time curves were superimposed on the baseline secretion profile of the standard T2D patient.
# metabolic syndrome = assay: FS index / neural net model of cardiovascular risk in metabolic syndrome patient populations; assay type: in vivo, human
# Description: The FS index of MS comprises the following parameters: Fasting Blood Glucose, Fasting Insulin, HBA1c, BMI, AST, Triglycerides, Glucose Supply-Demand (S/D) index, and in certain cases, Proinsulin. Each parameter was mathematically arranged to increase as MS worsened, and weighted approximately equally in the prediction of MS progression and risk for CV events. […] FS index values were calculated from serial laboratory and clinical data over timeframes ranging between 2 and 10 years.
# Neural Net Models and Data Display Methods. […] Unless otherwise stated, standard deviations (z-score) vs. time are presented in the individual and mean population graphics.
# For purposes of analysis, clinical and laboratory parameters were converted into modified z-scores as follows: • A mean normal value (described as “mean” in the following) was selected based on review of literature and various published laboratory compendia. The Standard Deviation (SD) of each parameter was set to one half of the normal range. The modified z-score is calculated as follows: z=(Patient value−“mean”)/SD • On the graphs, the z-score is reported as the number of SD.
# The FS index considered the following: Fasting Blood Glucose, Fasting Insulin, HBA1c, BMI, AST, Triglycerides, Glucose Supply-Demand (S/D) index, and in some cases Proinsulin. […] Each of these parameters was mathematically arranged to increase as Metabolic Syndrome worsened, and weighted approximately equally in the prediction of Metabolic Syndrome progression and risk for CV events.
# The FS index was then applied to well-studied patient populations using a neural net model.
# [formula] Where FBG is Fasting Blood Glucose in mg/dl and normal value is 100 mg/dl TG is Triglycerides in mg/dl normal value is <150 HBA1c is hemoglobin A1c in %, normal value is <6% BMI is body mass index as kg/m2 where a normal value is 20 and obese begins above 25 AST is Aspartate Transferase also called SGOT in IU/liter and a normal value is 5-50 FB insulin is fasting Blood insulin concentration in nmol/liter, a normal value is 4.0
# [5] = system: intestinal glucose utilization; conditions: cited from earlier work
# [6] = system: hepatic glucose uptake (HGU); conditions: Iozzo; metformin 2000 mg daily, rosiglitazone 8 mg daily; 26 weeks; PET [18F]FDG, insulin clamp; cited from earlier work
# [7] = system: peripheral insulin exposure (PIE); conditions: cited from earlier work
# [8] = Metformin 2000 mg, Glyburide 10 mg, Pioglitazone 45 mg, Insulin Glargine 0.5 U/kg daily, pH encapsulated glucose 3.0 grams/day
structure (smiles),measurement,setting,value
CN(C)C(=N)N=C(N)N [Metformin],Score CE,[1],0.15
same,Score HGU,[2]; [8],0.40
same,HGU uptake,"[2]; adjustment factor = increase in hepatic glucose uptake at the therapeutic dose of Table 1, T2D",0.40
same,Score HGI,[3]; [8],0.35
same,GNG inhibition,"[3]; adjustment factor = decrease in hepatic gluconeogenesis at the therapeutic dose of Table 1, T2D",0.35
same,Score PIE,[4]; [8],−0.10
same,PIE,"[4]; adjustment factor = increase in peripheral insulin exposure at the therapeutic dose of Table 1, T2D",−0.10
same,FS index response to treatment,"metabolic syndrome; normal 20-50, 61 T2D on metformin, 100 RYGB, 18 Brake, 33 exenatide, 12 sitagliptin patients",Their FS index rises; also recorded: flat or slowly rising
same,"other parameters of metabolic syndrome (BMI/weight, HBSD, lipids, NAFLD, blood pressure, insulin)",metabolic syndrome; same patient populations as FS index,"their HBSD rises, they gain weight"
same,increase in glucose utilization in mucosa from different regions of the intestine,"[5]; Bailey, metformin 250 mg/kg^−1, normal rats, intravenous glucose tolerance test",30-60%
same,increase in glucose utilization in the jejunum,"[5]; Penicaud, metformin 350 mg/kg^−1/day^−1 for 8 days, obese fa/fa rats",39%
same,"increase in HGU, placebo-subtracted value",[6],+0.008±0.004 μmol/kg^−1/min^−1
same,mean fasting and postprandial plasma insulin concentrations,"[7]; Inzucchi, metformin 2000 mg daily, 12 weeks","slightly, but not significantly reduced"
same,FPI,"[7]; Iozzo, metformin, before 63±12",43.0 ± 5.0 pmol/L
same,reduction of FPI,"[7]; Iozzo, metformin",~30%
same,FPI,"[7]; Sharma, metformin 2000 mg daily, 16 weeks, before 76.0±54.5",69.0 ± 45.0 pmol/L
same,reduction in FPI,"[7]; Sharma, metformin 2000 mg daily, 16 weeks",~10%
same,FPI,"[7]; Stumvoll, metformin, before 12±5",10 μU/ml
same,reduction of FPI,"[7]; Stumvoll, metformin",17%
same,FPI,"[7]; Tiikkainen, metformin 2000 mg daily, 16 weeks, before 13",9 mU/liter
same,reduction in FPI,"[7]; Tiikkainen, metformin 2000 mg daily, 16 weeks",~30%
same,reduction of FPI concentrations (range over studies),[7]; metformin,10-30%

# Reference: patent US9443060B2, “Method and system to provide personalized pharmaceutical compositions and dosages” (Volant Holdings GMBH, priority 2009, dated 2016)
